Test system: MV-4-11 cells
Assay: Gene expression microarray analysis (Affymetrix PrimeView) and GSEA
Format: cell-based, human
Set-up: RFU PODN (11730768_x_at) / Fold change /veh PODN (11730768_x_at) / RFU LINC00158 (11744669_a_at) / Fold change /veh LINC00158 (11744669_a_at) / RFU DUSP10 (11751237_a_at) / Fold change /veh DUSP10 (11751237_a_at) / RFU ID3 (11757404_x_at) / Fold change /veh ID3 (11757404_x_at) / RFU PLEKHG5 (11737974_s_at) / Fold change /veh PLEKHG5 (11737974_s_at) / RFU LRRC4B (11730491_at) / Fold change /veh LRRC4B (11730491_at) / RFU GIMAP4 (11747438_a_at) / Fold change /veh GIMAP4 (11747438_a_at) / RFU KRT8 (11758183_x_at) / Fold change /veh KRT8 (11758183_x_at) / RFU CNN1 (11734310_a_at) / Fold change /veh CNN1 (11734310_a_at) / RFU VPS37D (11726825_at) / Fold change /veh VPS37D (11726825_at) / RFU C10orf10 (11716522_x_at) / Fold change /veh C10orf10 (11716522_x_at) / RFU KIR2DL2 /// KIR2DL4 /// KIR2DL5A /// KIR2DL5B /// KIR2DS1 /// KIR2DS2 /// KIR2DS3 /// KIR2DS4 /// KIR3DL3 /// KIR3DL3 /// KIR3DS1 (11738374_at) / Fold change /veh KIR2DL2 /// KIR2DL4 /// KIR2DL5A /// KIR2DL5B /// KIR2DS1 /// KIR2DS2 /// KIR2DS3 /// KIR2DS4 /// KIR3DL3 /// KIR3DL3 /// KIR3DS1 (11738374_at) / RFU C1QL1 (11718748_at) / Fold change /veh C1QL1 (11718748_at) / RFU TMPRSS4 (11747572_a_at) / Fold change /veh TMPRSS4 (11747572_a_at) / RFU HAMP (11756126_x_at) / Fold change /veh HAMP (11756126_x_at) / RFU RNFT2 (11725882_a_at) / Fold change /veh RNFT2 (11725882_a_at) / RFU NR4A2 (11747474_a_at) / Fold change /veh NR4A2 (11747474_a_at) / RFU ABCC12 (11746883_a_at) / Fold change /veh ABCC12 (11746883_a_at) / RFU TMEM136 (11760407_x_at) / Fold change /veh TMEM136 (11760407_x_at) / RFU CLDN22 /// WWC2 (11732394_at) / Fold change /veh CLDN22 /// WWC2 (11732394_at) / RFU HLA-DPB1 (11760878_x_at) / Fold change /veh HLA-DPB1 (11760878_x_at) / RFU SPINT1 (11716480_a_at) / Fold change /veh SPINT1 (11716480_a_at) / RFU GAP43 (11754022_s_at) / Fold change /veh GAP43 (11754022_s_at) / RFU A4GNT (11735810_at) / Fold change /veh A4GNT (11735810_at) / RFU PRB3 (11715151_x_at) / Fold change /veh PRB3 (11715151_x_at) / RFU TUBB4B (11761932_at) / Fold change /veh TUBB4B (11761932_at) / RFU CAPN14 (11732068_a_at) / Fold change /veh CAPN14 (11732068_a_at) / RFU TMCC2 (11721928_a_at) / Fold change /veh TMCC2 (11721928_a_at) / RFU IRGQ (11745062_a_at) / Fold change /veh IRGQ (11745062_a_at) / RFU FAM174B (11720279_a_at) / Fold change /veh FAM174B (11720279_a_at) / RFU TMPRSS4 (11748680_a_at) / Fold change /veh TMPRSS4 (11748680_a_at) / RFU FAM212B (11763350_a_at) / Fold change /veh FAM212B (11763350_a_at) / RFU PLEKHG5 (11743358_a_at) / Fold change /veh PLEKHG5 (11743358_a_at) / RFU ZSCAN30 (11745921_a_at) / Fold change /veh ZSCAN30 (11745921_a_at) / RFU CMKLR1 (11741424_a_at) / Fold change /veh CMKLR1 (11741424_a_at) / RFU LOC101060620 /// MAPK8IP1 (11723275_at) / Fold change /veh LOC101060620 /// MAPK8IP1 (11723275_at) / RFU SPTSSB (11747773_x_at) / Fold change /veh SPTSSB (11747773_x_at) / RFU PRSS12 (11739890_at) / Fold change /veh PRSS12 (11739890_at) / RFU BIN1 (11741810_x_at) / Fold change /veh BIN1 (11741810_x_at) / RFU WNT11 (11732464_a_at) / Fold change /veh WNT11 (11732464_a_at) / RFU C10orf10 (11716521_a_at) / Fold change /veh C10orf10 (11716521_a_at) / RFU C5orf56 (11738089_at) / Fold change /veh C5orf56 (11738089_at) / RFU CYB561 (11721691_x_at) / Fold change /veh CYB561 (11721691_x_at) / RFU ANKRD19P (11752326_a_at) / Fold change /veh ANKRD19P (11752326_a_at) / RFU OR2T12 /// OR2T33 /// OR2T8 (11738714_s_at) / Fold change /veh OR2T12 /// OR2T33 /// OR2T8 (11738714_s_at) / RFU VCAN (11748164_a_at) / Fold change /veh VCAN (11748164_a_at) / RFU JSRP1 (11732532_at) / Fold change /veh JSRP1 (11732532_at) / RFU KRTAP10-11 (11738290_x_at) / Fold change /veh KRTAP10-11 (11738290_x_at) / RFU MYO3A (11730013_a_at) / Fold change /veh MYO3A (11730013_a_at) / RFU EBF3 (11725865_a_at) / Fold change /veh EBF3 (11725865_a_at) / RFU CAMK2N1 (11719241_x_at) / Fold change /veh CAMK2N1 (11719241_x_at) / RFU C5orf56 (11738088_a_at) / Fold change /veh C5orf56 (11738088_a_at) / RFU OLFML3 (11715873_a_at) / Fold change /veh OLFML3 (11715873_a_at) / RFU LOC100653217 /// NTM (11731650_a_at) / Fold change /veh LOC100653217 /// NTM (11731650_a_at) / RFU MAPK11 (11762145_a_at) / Fold change /veh MAPK11 (11762145_a_at) / RFU FIZ1 (11724087_x_at) / Fold change /veh FIZ1 (11724087_x_at) / RFU OASL (11726364_x_at) / Fold change /veh OASL (11726364_x_at) / RFU SOX15 (11748057_x_at) / Fold change /veh SOX15 (11748057_x_at) / RFU CD79A (11719716_a_at) / Fold change /veh CD79A (11719716_a_at) / RFU HIST1H1D (11736915_at) / Fold change /veh HIST1H1D (11736915_at) / RFU CASKIN2 (11723855_a_at) / Fold change /veh CASKIN2 (11723855_a_at) / RFU LOC730098 (11760151_x_at) / Fold change /veh LOC730098 (11760151_x_at) / RFU OR4N2 (11742367_at) / Fold change /veh OR4N2 (11742367_at) / RFU PRRT2 (11749266_a_at) / Fold change /veh PRRT2 (11749266_a_at) / RFU SNX32 (11753110_a_at) / Fold change /veh SNX32 (11753110_a_at) / RFU CDHR5 (11726645_a_at) / Fold change /veh CDHR5 (11726645_a_at) / RFU RCAN1 (11760418_a_at) / Fold change /veh RCAN1 (11760418_a_at) / RFU FAM167A (11723789_a_at) / Fold change /veh FAM167A (11723789_a_at) / RFU FAM26E (11764081_at) / Fold change /veh FAM26E (11764081_at) / RFU ISYNA1 (11749810_s_at) / Fold change /veh ISYNA1 (11749810_s_at) / RFU ACY1 (11761880_at) / Fold change /veh ACY1 (11761880_at) / RFU 11764098_at / Fold change /veh 11764098_at / RFU SAMD14 (11745864_x_at) / Fold change /veh SAMD14 (11745864_x_at) / RFU NPB (11741838_a_at) / Fold change /veh NPB (11741838_a_at) / RFU TMPRSS6 (11731388_a_at) / Fold change /veh TMPRSS6 (11731388_a_at) / RFU KRTAP10-2 (11738614_at) / Fold change /veh KRTAP10-2 (11738614_at) / RFU ARHGAP8 /// PRR5-ARHGAP8 (11727945_x_at) / Fold change /veh ARHGAP8 /// PRR5-ARHGAP8 (11727945_x_at) / RFU KRTAP5-7 /// NADSYN1 (11734609_at) / Fold change /veh KRTAP5-7 /// NADSYN1 (11734609_at) / RFU RASL12 (11751679_a_at) / Fold change /veh RASL12 (11751679_a_at) / RFU CDKN2B (11736163_a_at) / Fold change /veh CDKN2B (11736163_a_at) / RFU PRF1 (11729649_at) / Fold change /veh PRF1 (11729649_at) / RFU, ZNF638 /// ZNF638-IT1 / Fold change vs veh, ZNF638 /// ZNF638-IT1 / RFU, PANK3 / Fold change vs veh, PANK3 / RFU, SH3YL1 / Fold change vs veh, SH3YL1 / RFU, ZEB2 / Fold change vs veh, ZEB2 / RFU, NRIP1 / Fold change vs veh, NRIP1 / RFU, PTTG1IP / Fold change vs veh, PTTG1IP / RFU, CAPN2 / Fold change vs veh, CAPN2 / RFU, MED14 / Fold change vs veh, MED14 / RFU, SNORA58 / Fold change vs veh, SNORA58 / RFU, C1orf63 / Fold change vs veh, C1orf63 / RFU, LRRFIP1 / Fold change vs veh, LRRFIP1 / RFU, NDUFAF7 / Fold change vs veh, NDUFAF7 / RFU, SLC12A2 / Fold change vs veh, SLC12A2 / RFU, IBTK / Fold change vs veh, IBTK / RFU, ESF1 / Fold change vs veh, ESF1 / Fold change vs veh, TMEM50B / RFU, TAOK1 / Fold change vs veh, TAOK1 / RFU, ACBD3 / Fold change vs veh, ACBD3 / RFU, TMA16 / Fold change vs veh, TMA16 / RFU, RWDD3 / Fold change vs veh, RWDD3 / RFU, BCAT1 / Fold change vs veh, BCAT1 / RFU, EDEM3 / Fold change vs veh, EDEM3 / RFU, TMEM33 / Fold change vs veh, TMEM33 / RFU, WDR75 / Fold change vs veh, WDR75 / RFU, AHCTF1 / Fold change vs veh, AHCTF1 / RFU, TFRC / Fold change vs veh, TFRC / RFU, ZDHHC17 / Fold change vs veh, ZDHHC17 / RFU, NOM1 / Fold change vs veh, NOM1 / RFU, ARL8B / Fold change vs veh, ARL8B / RFU, ZBTB11 / Fold change vs veh, ZBTB11 / RFU, TAMM41 / Fold change vs veh, TAMM41 / RFU, KIAA1704 /// LOC100996395 / Fold change vs veh, KIAA1704 /// LOC100996395 / RFU, ING1 / Fold change vs veh, ING1 / RFU, TRMT61B / Fold change vs veh, TRMT61B / RFU, FUBP3 / Fold change vs veh, FUBP3 / RFU, TP53 / Fold change vs veh, TP53 / RFU, TNKS2 / Fold change vs veh, TNKS2 / RFU, ZFP14 / Fold change vs veh, ZFP14 / RFU, ACTR2 / Fold change vs veh, ACTR2 / RFU, PPP3R1 / Fold change vs veh, PPP3R1 / RFU, PIK3R1 / Fold change vs veh, PIK3R1 / RFU, HNRNPA1 / Fold change vs veh, HNRNPA1 / RFU, RNF170 / Fold change vs veh, RNF170 / RFU, ZNF28 / Fold change vs veh, ZNF28 / RFU, RNGTT / Fold change vs veh, RNGTT / RFU, OGT / Fold change vs veh, OGT / RFU, BRD1 / Fold change vs veh, BRD1 / RFU, MARS / Fold change vs veh, MARS / RFU, ZNF655 / Fold change vs veh, ZNF655 / RFU, FAHD1 / Fold change vs veh, FAHD1 / RFU, BDP1 / Fold change vs veh, BDP1 / RFU, LRRCC1 / Fold change vs veh, LRRCC1 / RFU, ARID1A / Fold change vs veh, ARID1A / RFU, ZNF146 / Fold change vs veh, ZNF146 / RFU, ZNF330 / Fold change vs veh, ZNF330 / RFU, GPN3 / Fold change vs veh, GPN3 / RFU, C9orf123 / Fold change vs veh, C9orf123 / RFU, N4BP2L2 / Fold change vs veh, N4BP2L2 / RFU, ARFIP1 / Fold change vs veh, ARFIP1 / RFU, FAM179B / Fold change vs veh, FAM179B / RFU, BCL10 / Fold change vs veh, BCL10 / RFU, UHRF1BP1L / Fold change vs veh, UHRF1BP1L / RFU, BET1 / Fold change vs veh, BET1 / RFU, CNOT2 / Fold change vs veh, CNOT2 / RFU, ZNF268 / Fold change vs veh, ZNF268 / Fold change vs veh, ZNF507 / RFU, DGCR2 / Fold change vs veh, DGCR2 / RFU, WDSUB1 / Fold change vs veh, WDSUB1 / Fold change vs veh, HSP90B1 /// MIR3652 / RFU, ADSS / Fold change vs veh, ADSS / RFU, GK / Fold change vs veh, GK / RFU, ZNF148 / Fold change vs veh, ZNF148 / RFU, TAF9 / Fold change vs veh, TAF9 / RFU, SLC1A5 / Fold change vs veh, SLC1A5 / RFU, SLMO2 / Fold change vs veh, SLMO2 / RFU, ABCC4 / Fold change vs veh, ABCC4 / RFU, LOC101060439 /// RAP1B / Fold change vs veh, LOC101060439 /// RAP1B / RFU, RFX7 / Fold change vs veh, RFX7 / RFU, GTPBP10 / Fold change vs veh, GTPBP10 / RFU, CNEP1R1 / Fold change vs veh, CNEP1R1 / RFU, BIVM-ERCC5 /// ERCC5 / Fold change vs veh, BIVM-ERCC5 /// ERCC5 / RFU, ILF3 / Fold change vs veh, ILF3 / RFU 11762660_at / Fold change /veh 11762660_at / RFU VCAN (11757783_s_at) / Fold change /veh VCAN (11757783_s_at) / RFU DDX43 (11728927_at) / Fold change /veh DDX43 (11728927_at) / RFU KRT8 (11758188_x_at) / Fold change /veh KRT8 (11758188_x_at) / RFU NKD1 (11759106_at) / Fold change /veh NKD1 (11759106_at) / RFU SRD5A1 (11742802_a_at) / Fold change /veh SRD5A1 (11742802_a_at) / RFU TPSAB1 /// TPSB2 (11721975_s_at) / Fold change /veh TPSAB1 /// TPSB2 (11721975_s_at) / RFU GSTM3 (11746129_a_at) / Fold change /veh GSTM3 (11746129_a_at) / RFU IL23R (11737362_x_at) / Fold change /veh IL23R (11737362_x_at) / RFU TMEM51 (11727254_a_at) / Fold change /veh TMEM51 (11727254_a_at) / RFU PIWIL2 (11732686_x_at) / Fold change /veh PIWIL2 (11732686_x_at) / RFU ORM1 (11744905_x_at) / Fold change /veh ORM1 (11744905_x_at) / RFU CCDC152 (11743942_at) / Fold change /veh CCDC152 (11743942_at) / RFU ECM1 (11717891_a_at) / Fold change /veh ECM1 (11717891_a_at) / RFU IL23R (11748794_a_at) / Fold change /veh IL23R (11748794_a_at) / RFU TNFAIP8L3 (11732012_x_at) / Fold change /veh TNFAIP8L3 (11732012_x_at) / RFU MBOAT4 (11741988_at) / Fold change /veh MBOAT4 (11741988_at) / RFU 11764193_at / Fold change /veh 11764193_at / RFU TMEM53 (11763286_at) / Fold change /veh TMEM53 (11763286_at) / RFU MAGEB2 (11727129_at) / Fold change /veh MAGEB2 (11727129_at) / RFU TMEM200A (11744735_a_at) / Fold change /veh TMEM200A (11744735_a_at) / RFU CCDC152 (11751479_a_at) / Fold change /veh CCDC152 (11751479_a_at) / RFU FAM211A (11726209_a_at) / Fold change /veh FAM211A (11726209_a_at) / RFU RGS16 (11746705_a_at) / Fold change /veh RGS16 (11746705_a_at) / RFU VCAN (11755009_s_at) / Fold change /veh VCAN (11755009_s_at) / RFU RHOB (11743442_s_at) / Fold change /veh RHOB (11743442_s_at) / RFU RGS16 (11720943_a_at) / Fold change /veh RGS16 (11720943_a_at) / RFU RGS16 (11720944_at) / Fold change /veh RGS16 (11720944_at) / RFU, VPS4B / Fold change vs veh, VPS4B / RFU, CREB1 / Fold change vs veh, CREB1 / RFU, DNAJC13 / Fold change vs veh, DNAJC13 / RFU, GNAQ / Fold change vs veh, GNAQ / RFU, CDK5R1 / Fold change vs veh, CDK5R1 / RFU, ZRANB3 / Fold change vs veh, ZRANB3 / RFU, CUL4A / Fold change vs veh, CUL4A / RFU, CCNY / Fold change vs veh, CCNY / RFU, UFL1 / Fold change vs veh, UFL1 / RFU, COG3 / Fold change vs veh, COG3 / RFU, DIAPH2 / Fold change vs veh, DIAPH2 / RFU, SKA2 / Fold change vs veh, SKA2 / RFU, AFF3 / Fold change vs veh, AFF3 / RFU, LMF1 / Fold change vs veh, LMF1 / RFU, IPO11 / Fold change vs veh, IPO11 / RFU, DFFB / Fold change vs veh, DFFB / RFU, FOXP1 / Fold change vs veh, FOXP1 / RFU, CARD8 / Fold change vs veh, CARD8 / RFU, STRN3 / Fold change vs veh, STRN3 / RFU, ADK / Fold change vs veh, ADK / RFU, RASSF2 / Fold change vs veh, RASSF2 / RFU, WIPF1 / Fold change vs veh, WIPF1 / RFU, LARP1B / Fold change vs veh, LARP1B / RFU, RASA1 / Fold change vs veh, RASA1 / RFU, RB1 / Fold change vs veh, RB1 / RFU, PPFIA1 / Fold change vs veh, PPFIA1 / RFU, MAT2A / Fold change vs veh, MAT2A / RFU, CCT5 / Fold change vs veh, CCT5 / RFU, WDR92 / Fold change vs veh, WDR92 / RFU, CUX1 / Fold change vs veh, CUX1 / RFU, TTC7A / Fold change vs veh, TTC7A / RFU, TMEM135 / Fold change vs veh, TMEM135 / RFU, DEPTOR / Fold change vs veh, DEPTOR / RFU, CPM / Fold change vs veh, CPM / RFU, DNAJB6 / Fold change vs veh, DNAJB6 / RFU, CACNA2D3 / Fold change vs veh, CACNA2D3 / RFU, DTX4 / Fold change vs veh, DTX4 / RFU, TFCP2 / Fold change vs veh, TFCP2 / RFU, GMCL1 /// GMCL1P1 / Fold change vs veh, GMCL1 /// GMCL1P1 / RFU, AEBP2 / Fold change vs veh, AEBP2 / RFU, SNHG1 /// SNORD22 /// SNORD25 /// SNORD26 /// SNORD27 /// SNORD28 /// SNORD29 /// SNORD31 / Fold change vs veh, SNHG1 /// SNORD22 /// SNORD25 /// SNORD26 /// SNORD27 /// SNORD28 /// SNORD29 /// SNORD31 / Fold change (Aza/veh), C12orf56 (ProbeSet 11735607_a_at) / Fold change (ACY-1035/veh), C12orf56 (ProbeSet 11735607_a_at) / Fold change (Aza/veh), FGFR1OP (ProbeSet 11751329_s_at) / Fold change (ACY-1035/veh), FGFR1OP (ProbeSet 11751329_s_at) / Fold change (Aza/veh), VPS36 (ProbeSet 11739960_a_at) / Fold change (ACY-1035/veh), VPS36 (ProbeSet 11739960_a_at) / RFU SYPL1 (11715823_x_at) / Fold change /veh SYPL1 (11715823_x_at) / RFU IGFBP7 (11715501_s_at) / Fold change /veh IGFBP7 (11715501_s_at) / RFU REEP3 (11722064_at) / Fold change /veh REEP3 (11722064_at) / RFU IGLL1 (11728026_x_at) / Fold change /veh IGLL1 (11728026_x_at): dose or concentration left out as unconfirmed
Settings: ProbeSet 11747888_a_at; LIST D

Nc1ccc(-c2cccs2)cc1NC(=O)c1ccc2c(c1)cc(C1CC1)n2CCN1CCOCC1 [ACY-1035]
RFU, SH3YL1: 63.67 RFU

Source: paper PMC5218480 (PLoS ONE, 2017)
